For orientation: Ki means a measure of affinity in units of concentration, obtained from inhibition or displacement. For orientation: EC50 means the concentration needed to bring the measured effect to its halfway point.

The values below come from patent EP2058306A1, “Heteroaryl-substituted 2-pyridinyl-methylamine derivatives” (SCHWARZ PHARMA AG, priority 2007, dated 2009).

For one data set, the target named is human D2long, D2short (Homo sapiens, UniProt P14416). The data set is described as follows: biochemical. The format is binding. As to conditions: CHO cell membranes, [3H]spiperone; mean of two to five experiments in triplicate; read-out: Ki D2.
Sequence of human D2long, D2short (P14416 whole entry): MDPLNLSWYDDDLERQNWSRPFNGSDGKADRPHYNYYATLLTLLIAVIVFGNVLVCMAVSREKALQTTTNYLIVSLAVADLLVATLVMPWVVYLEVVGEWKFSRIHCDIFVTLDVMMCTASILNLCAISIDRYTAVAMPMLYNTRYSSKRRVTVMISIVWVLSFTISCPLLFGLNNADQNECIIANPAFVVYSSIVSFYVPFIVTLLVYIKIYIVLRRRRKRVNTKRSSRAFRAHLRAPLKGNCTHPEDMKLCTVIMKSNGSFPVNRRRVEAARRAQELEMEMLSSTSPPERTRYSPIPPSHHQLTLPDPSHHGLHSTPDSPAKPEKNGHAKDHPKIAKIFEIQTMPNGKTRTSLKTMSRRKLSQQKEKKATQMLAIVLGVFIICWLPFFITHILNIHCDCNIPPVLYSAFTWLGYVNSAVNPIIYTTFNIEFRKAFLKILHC
Another data set has as its target T1, human 5-HT1A receptor (Homo sapiens, UniProt P08908).
T1 construct: expressed in transfected cells
T1 sequence (P08908 1-422): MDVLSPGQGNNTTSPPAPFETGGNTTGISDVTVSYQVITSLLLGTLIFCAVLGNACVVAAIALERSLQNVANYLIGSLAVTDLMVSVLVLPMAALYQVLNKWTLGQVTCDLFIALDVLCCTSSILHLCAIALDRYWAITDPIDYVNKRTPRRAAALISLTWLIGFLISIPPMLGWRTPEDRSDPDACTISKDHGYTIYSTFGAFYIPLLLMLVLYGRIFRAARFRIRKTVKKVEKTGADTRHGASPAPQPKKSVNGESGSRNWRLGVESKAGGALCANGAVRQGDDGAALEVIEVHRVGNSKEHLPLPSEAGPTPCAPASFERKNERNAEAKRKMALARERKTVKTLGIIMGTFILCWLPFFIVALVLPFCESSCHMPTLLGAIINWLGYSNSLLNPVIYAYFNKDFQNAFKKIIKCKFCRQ
The data set is described as follows: [35S]GTPγS assay of functional activity at the 5-HT1A receptor. The data set is classed as biochemical. To be noted: membranes from CHO cells expressing human 5-HT1A receptor; for 5-HT1A stimulated [35S]GTPγS binding intrinsic effect: % activity of serotonin; for EC50: read-out: 5-HT1A stimulated [35S]GTPγS binding EC50 value. As for the experimental part:
In detail, membranes from CHO (Chinese hamster ovary) cells stably expressing the human 5-HT1A receptor were stimulated with an increasing concentration of test compounds used in a range of subnanomolar to micromolar concentrations in the presence of radioactive [^35S]GTPγ. The amount of bound radioactivity which indicates the amount of stimulation of the receptor was determined after transferring the membranes to filters by scintillation counting. Dose response correlations could be derived and the particular stimulation of the receptor was compared to the maximum effect of the reference compound and physiological ligand serotonin.
Table 2: Intrinsic activities of the compounds of this invention at the serotonin 5-HT1A receptor determined in a [35S]GTPγS assay
(In general: GTPγS resists hydrolysis and so accumulates on activated G proteins.)

The target of the next data set is alpha-1. In words: radioligand binding assay, adrenergic alpha-1 receptor, [3H]prazosin. To be noted: porcine cortical membranes, mean of two to five experiments in triplicate, read-out: Ki alpha1. In short, it runs like this:
(§1)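 Porcine cortical membranes incubated with [3H]prazosin for alpha-1 or [3H]WAY 100635 for 5-HT1A. Ki values in nM are means of two to five experiments, each in triplicate.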

A further data set has as its target T2, human D4.4 (Homo sapiens, UniProt P21917).
T2 sequence (P21917 1-419): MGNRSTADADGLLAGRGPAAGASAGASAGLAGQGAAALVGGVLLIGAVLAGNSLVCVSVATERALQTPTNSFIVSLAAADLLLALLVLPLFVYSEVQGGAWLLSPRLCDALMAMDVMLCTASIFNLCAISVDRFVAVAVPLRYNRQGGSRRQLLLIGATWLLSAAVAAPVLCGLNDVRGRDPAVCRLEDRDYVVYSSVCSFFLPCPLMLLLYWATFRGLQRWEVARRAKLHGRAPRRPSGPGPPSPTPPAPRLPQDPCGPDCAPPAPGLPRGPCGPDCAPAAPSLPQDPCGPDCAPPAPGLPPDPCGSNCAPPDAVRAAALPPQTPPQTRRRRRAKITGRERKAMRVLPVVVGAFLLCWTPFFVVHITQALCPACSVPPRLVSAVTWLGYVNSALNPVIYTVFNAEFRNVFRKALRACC
The data set is described as follows: radioligand binding assay, dopamine D4.4 receptor, [3H]spiperone. To be noted: CHO cell membranes, mean of two to five experiments in triplicate, read-out: Ki D4.4.

For the next data set, the target named is T3, dopamine D1 receptor (Sus scrofa, UniProt P50130).
T3 construct: native membrane preparations from porcine striatum; from tissue; host or cells: porcine striatum
T3 sequence (P50130 whole entry): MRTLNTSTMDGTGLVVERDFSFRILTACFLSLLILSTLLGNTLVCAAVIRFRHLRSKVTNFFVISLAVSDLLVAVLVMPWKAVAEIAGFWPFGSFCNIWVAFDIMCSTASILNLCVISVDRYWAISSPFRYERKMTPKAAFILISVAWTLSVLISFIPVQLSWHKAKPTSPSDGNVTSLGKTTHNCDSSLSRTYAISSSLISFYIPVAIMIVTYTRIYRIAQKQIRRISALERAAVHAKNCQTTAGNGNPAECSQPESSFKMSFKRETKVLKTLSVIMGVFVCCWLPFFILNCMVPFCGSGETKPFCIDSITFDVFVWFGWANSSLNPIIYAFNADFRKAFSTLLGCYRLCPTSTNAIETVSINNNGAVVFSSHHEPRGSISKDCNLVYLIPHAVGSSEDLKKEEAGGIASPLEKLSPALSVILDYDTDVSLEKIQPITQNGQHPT
In words: radioligand binding assay, dopamine D1 receptor, [3H]SCH 23390. To be noted: porcine striatum membranes, mean of two to five experiments in triplicate, read-out: Ki D1.

In another data set the target is T4, 5-HT1A (Sus scrofa, UniProt A0A4X1UTF5).
T4 construct: membrane preparations from porcine cortex; from tissue; host or cells: porcine cortex
T4 sequence (A0A4X1UTF5 1-422): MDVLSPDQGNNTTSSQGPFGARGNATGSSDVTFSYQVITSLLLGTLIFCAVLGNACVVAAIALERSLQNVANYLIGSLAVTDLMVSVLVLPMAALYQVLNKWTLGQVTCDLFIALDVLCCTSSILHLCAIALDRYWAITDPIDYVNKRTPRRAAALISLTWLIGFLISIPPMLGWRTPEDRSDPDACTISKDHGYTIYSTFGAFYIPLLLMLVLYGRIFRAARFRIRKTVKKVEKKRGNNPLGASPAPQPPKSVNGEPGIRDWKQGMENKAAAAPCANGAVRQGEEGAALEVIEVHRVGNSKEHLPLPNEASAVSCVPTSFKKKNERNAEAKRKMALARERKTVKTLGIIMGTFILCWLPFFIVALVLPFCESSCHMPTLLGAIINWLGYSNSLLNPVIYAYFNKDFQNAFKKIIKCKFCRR
The data set is described as follows: radioligand binding assay, serotonin 5-HT1A receptor, [3H]WAY 100635. As to conditions: porcine cortex membranes, mean of two to five experiments in triplicate, read-out: Ki 5-HT1a. In short, it runs like this: as §1

The target of another data set is human D3 (Homo sapiens, UniProt P35462). In words: radioligand binding assay, dopamine D3 receptor, [3H]spiperone. As to conditions: CHO cell membranes, mean of two to five experiments in triplicate, read-out: Ki D3.
Sequence of human D3 (P35462 whole entry): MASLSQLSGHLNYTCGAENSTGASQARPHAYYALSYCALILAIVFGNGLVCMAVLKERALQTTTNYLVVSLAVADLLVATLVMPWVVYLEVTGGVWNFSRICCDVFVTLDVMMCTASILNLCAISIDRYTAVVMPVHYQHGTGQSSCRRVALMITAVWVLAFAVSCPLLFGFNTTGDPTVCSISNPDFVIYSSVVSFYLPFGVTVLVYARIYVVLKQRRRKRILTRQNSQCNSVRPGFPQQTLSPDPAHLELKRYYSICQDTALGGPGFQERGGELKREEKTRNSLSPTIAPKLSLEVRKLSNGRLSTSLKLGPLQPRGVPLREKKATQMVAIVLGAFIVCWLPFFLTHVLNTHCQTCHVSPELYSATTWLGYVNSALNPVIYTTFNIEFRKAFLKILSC
The target in a further data set is T5, 5-HT2 (Sus scrofa, UniProt P50129).
T5 construct: membrane preparations from porcine cortex; from tissue; host or cells: porcine cortex
T5 sequence (P50129 whole entry): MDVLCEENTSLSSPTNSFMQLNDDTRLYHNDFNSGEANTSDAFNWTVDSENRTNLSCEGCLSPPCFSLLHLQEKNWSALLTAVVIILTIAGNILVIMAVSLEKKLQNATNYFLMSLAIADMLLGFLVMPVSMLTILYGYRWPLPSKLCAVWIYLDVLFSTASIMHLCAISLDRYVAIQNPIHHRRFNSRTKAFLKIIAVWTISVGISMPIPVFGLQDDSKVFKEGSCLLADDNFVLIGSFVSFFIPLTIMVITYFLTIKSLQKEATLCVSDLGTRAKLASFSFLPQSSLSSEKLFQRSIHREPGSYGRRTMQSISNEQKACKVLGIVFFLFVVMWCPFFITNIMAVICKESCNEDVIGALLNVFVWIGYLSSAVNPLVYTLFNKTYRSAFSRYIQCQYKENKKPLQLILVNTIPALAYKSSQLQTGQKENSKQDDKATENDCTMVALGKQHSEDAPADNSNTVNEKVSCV
The data set is described as follows: radioligand binding assay, serotonin 5-HT2 receptor, [3H]ketanserin. Details: species or system porcine.

The conditions of data set [1]: cited from Maurel et al, reference (14); cited from earlier work.
The mark [2] stands for this setting: porcine cortex membranes, [3H]ketanserin, mean of two to five experiments in triplicate, read-out: Ki 5-HT2.

Structures are written as SMILES. Where two headings read alike, the source gives them in different places. Some results are limits rather than exact numbers.

In the case of `Cc1ccc(CNCC2(F)CCN(C(=O)c3cccs3)CC2)nc1` [Example E1], the Ki was greater than 5 µM on human D2long, D2short; greater than 5 µM on alpha-1; greater than 5 µM on human D4.4; greater than 5 µM on dopamine D1 receptor; less than 0.05 µM on 5-HT1A; greater than 5 µM on human D3. For the same compound, on 5-HT2 (setting [2]), the inhibition constant (Ki) was greater than 5 µM. The “5-HT1A stimulated [35S]GTPγS binding intrinsic effect” value (from here on “5-HT1A stimulated”) at human 5-HT1A receptor is listed as “D (D=full agonist (>75%))”. In addition, the EC50 on human 5-HT1A receptor is less than 0.05 µM.
`Cc1ccc(CNCC2(F)CCN(C(=O)c3ccsc3)CC2)nc1` [Example E18, [4-Fluoro-4-[[(5-methylpyridin-2-ylmethyl)amino]methyl]piperidin-1-yl]-thien-3-yl-methanone]: the Ki on human D2long, D2short was greater than 5 µM; on alpha-1 it was greater than 5 µM; at human D4.4 it was greater than 5 µM; at dopamine D1 receptor it was greater than 5 µM; at 5-HT1A, less than 0.05 µM; at human D3 it was greater than 5 µM. On 5-HT2 (setting [2]), the inhibition constant Ki was greater than 5 µM. The “5-HT1A stimulated” value at human 5-HT1A receptor is reported as “D (D=full agonist (>75%))”. For the same compound, the half-maximal effective concentration (EC50) on human 5-HT1A receptor is less than 0.05 µM.
Regarding `Cc1ccc(CNCC2(F)CCN(C(=O)c3cc(C)cs3)CC2)nc1` [Example E10, [4-Fluoro-4-[[(5-methylpyridin-2-ylmethyl)amino]methyl]piparidin-1-yl]-4-methylthien-2-yl-mothanone], the Ki was greater than 5 µM at human D2long, D2short; 0.501 to 5 µM on alpha-1; 0.501 to 5 µM at human D4.4; greater than 5 µM at dopamine D1 receptor; less than 0.05 µM on 5-HT1A; greater than 5 µM at human D3. The inhibitory constant (Ki) on 5-HT2 was greater than 5 µM. The “5-HT1A stimulated” value at human 5-HT1A receptor is “D (D=full agonist (>75%))”. In addition, the EC50 at human 5-HT1A receptor is less than 0.05 µM.
In the case of `Cc1ccc(CNCC2(F)CCN(C(=O)c3cc(Br)cs3)CC2)nc1` [Example E6, 4-Bromothien-2-yl-[4-fluoro-4-[[(5-methylpyridin-2-ylmethyl)amino]methyl]-piperidin-1-yl]-methanone], the Ki on human D2long, D2short is greater than 5 µM; at alpha-1, 0.501 to 5 µM; on human D4.4, 0.501 to 5 µM; on dopamine D1 receptor, greater than 5 µM; at 5-HT1A, less than 0.05 µM; on human D3 it was greater than 5 µM. Also, on 5-HT2 (setting [2]), the inhibitory constant (Ki) is greater than 5 µM. Also, the “5-HT1A stimulated” value at human 5-HT1A receptor is recorded as “D (D=full agonist (>75%))”. Also, the EC50 at human 5-HT1A receptor was less than 0.05 µM.
Turning to `Cc1ccc(CNCC2(F)CCN(C(=O)c3ccc(C)s3)CC2)nc1` [Example E11, [4-Fluoro-4-[[(5-methylpyridin-2-ylmethyl)amino]methyl]piperidin-1-yl]-5-mothylthiophon-2-yl-mothanone], the inhibitory constant (Ki) on human D2long, D2short was greater than 5 µM; at alpha-1 it was greater than 5 µM; on human D4.4 it was 0.501 to 5 µM; at dopamine D1 receptor, greater than 5 µM; at 5-HT1A, less than 0.05 µM; at human D3 it was greater than 5 µM. This compound also registered a Ki on 5-HT2 greater than 5 µM. For the same compound, the “5-HT1A stimulated” value at human 5-HT1A receptor is “D (D=full agonist (>75%))”. The EC50 at human 5-HT1A receptor is less than 0.05 µM.
Take `Cc1ccc(CNCC2(F)CCN(C(=O)c3sccc3C)CC2)nc1` [Example E9, [4-Fluoro-4-[[(5-methylpyridin-2-ylmethyl)amino]methyl]piperidin-1-yl]-3-methylthien-2-yl-methanone]: the Ki at human D2long, D2short was greater than 5 µM; at alpha-1, greater than 5 µM; on human D4.4 it was greater than 5 µM; on dopamine D1 receptor, greater than 5 µM; on 5-HT1A, less than 0.05 µM; at human D3, greater than 5 µM. The Ki at 5-HT2 (setting [2]) is greater than 5 µM. The “5-HT1A stimulated” value at human 5-HT1A receptor was “D (D=full agonist (>75%))”. On human 5-HT1A receptor, the half-maximal effective concentration (EC50) is less than 0.05 µM.
Take `Cc1ccc(CNCC2(F)CCN(C(=O)c3sccc3Cl)CC2)nc1` [Example E3, 3-Chlorothien-2-yl-[4-fluoro-4-[[(5-methylpyridin-2-ylmethyl)amino]methyl]-piperidin-1-yl]-methanone]: the Ki at human D2long, D2short is greater than 5 µM; on alpha-1, 0.501 to 5 µM; on human D4.4, 0.501 to 5 µM; at dopamine D1 receptor, greater than 5 µM; at 5-HT1A it was less than 0.05 µM; at human D3, greater than 5 µM. For the same compound, the Ki on 5-HT2 (setting [2]) is greater than 5 µM. At human 5-HT1A receptor, the “5-HT1A stimulated” value is on record as “D (D=full agonist (>75%))”. On human 5-HT1A receptor, the EC50 is less than 0.05 µM.
On to `Cc1ccc(CNCC2(F)CCN(C(=O)c3ccc(F)c(Cl)c3)CC2)nc1` [Example F13640, reference compound], for which the “half-life elimination from plasma” value in [1] was 35 h. Further, the “5-HT1A stimulated” value on human 5-HT1A receptor is “D (D=full agonist (>75%))”.
As to `Cc1ccc(CNCC2(F)CCN(C(=O)c3ccc(Cl)s3)CC2)nc1` [Example E4, 5-Chlorothien-2-yl-[4-fluoro-4-[[(5-methylpyridin-2-ylmethyl)amino]methyl]-piperidin-1-yl]-methanone], the Ki was greater than 5 µM at human D2long, D2short; 0.501 to 5 µM on alpha-1; 0.501 to 5 µM on human D4.4; greater than 5 µM on dopamine D1 receptor; less than 0.05 µM on 5-HT1A; greater than 5 µM on human D3. The inhibition constant Ki at 5-HT2 (setting [2]) is greater than 5 µM. In addition, the “5-HT1A stimulated” value on human 5-HT1A receptor is “D (D=full agonist (>75%))”. Also, the EC50 on human 5-HT1A receptor is less than 0.05 µM.
Regarding `Cc1ccc(CNCC2(F)CCN(C(=O)c3ccc(Br)s3)CC2)nc1` [Example E7, 5-Bromothion-2-yl-[4-fluoro-4-[[(5-mothylpyridin-2-ylmethyl)amino]methyl]-piperidin-1-yl]-methanone], the Ki at human D2long, D2short is greater than 5 µM; on alpha-1, 0.501 to 5 µM; on human D4.4, 0.501 to 5 µM; at dopamine D1 receptor, greater than 5 µM; on 5-HT1A it was less than 0.05 µM; at human D3, greater than 5 µM. This compound also gave a Ki at 5-HT2 greater than 5 µM. The “5-HT1A stimulated” value on human 5-HT1A receptor is “D (D=full agonist (>75%))”. For the same compound, on human 5-HT1A receptor, the EC50 was less than 0.05 µM.
For `Cc1ccc(CNCC2(F)CCN(C(=O)c3sccc3Br)CC2)nc1` [Example E5, 3-Bromothien-2-yl-[4-fluoro-4-[[(5-mothylpyridin-2-ylmethyl)amino]mothyl]-piperidin-1-yl]-methanone], the Ki is greater than 5 µM at human D2long, D2short; 0.501 to 5 µM at alpha-1; 0.501 to 5 µM at human D4.4; greater than 5 µM on dopamine D1 receptor; less than 0.05 µM on 5-HT1A; greater than 5 µM on human D3. Moreover, on 5-HT2, the Ki is greater than 5 µM. Besides, the “5-HT1A stimulated” value at human 5-HT1A receptor is “D (D=full agonist (>75%))”. On human 5-HT1A receptor, the EC50 is less than 0.05 µM.
